Key:
[1] = test system: whole blood from homozygous sickle cell patients; experiment: Whole blood assay: oxygen equilibrium curves of whole blood, HEMOX analyzer; format: cell-based, human; details: compounds tested at 1000 μM; hematocrit 20%, 1 hour at 37° C.
Protocol: Oxygen Equilibrium Curves (OEC) of whole blood before and after treatment with different concentrations of substituted benzaldehyde compounds were performed as follows using a HEMOX analyzer (TCS Scientific, New Hope, Pa.). Blood samples from homozygous sickle cell patients were obtained though the Hemoglobinopathy Center at Children's Hospital Oakland Research Institute (CHORI) with Institutional Review Board approval. The hematocrit was adjusted to 20% using autologous plasma and the blood samples were incubated for 1 hour at 37° C. in absence or presence of compounds. 100 μl of these samples were added to 5 mL of Hemox buffer (30 mM TES, 130 mM NaCl, 5 mM KCl, pH=7.4) at 37° C. and then transferred to the Hemox sample chamber. The samples were saturated with oxygen by flushing with compressed air for 10 minutes. The samples were then flushed with pure nitrogen and the respective absorbances of oxy- and deoxy-Hb are recorded as a function of the solution pO2. The oxygen equilibrium data were then fitted to the Hill Model to obtain values for p50. The deoxygenation curves for both whole blood alone (control) and whole blood in the presence of the compound were collected with the TCS software.
Table 5 below lists the delta p50% values where + indicates a delta p50% of between 0 and 29, ++ indicates a delta p50% of between 30 and 50, and +++ indicates a delta p50% of 50 or greater. The compounds in Table 2 were tested at 1000 μM.

purified HBS = target: T1, purified HBS (Homo sapiens, UniProt P68871+P69905, E7V); experiment: HbS polymerization assay (delay time, absorbance at 700 nm); format: biochemical; details: percent delay (% DT) of polymerization vs HBS alone; 50 μM purified HBS, 1.8 M potassium phosphate pH 7.4
T1 construct: HbS is purified by the CRO VIRUSYS, from blood obtained from homozygous sickle cell patients; tissue VIRUSYS (CRO that did the purification); host or cells: blood of homozygous sickle cell patients (CHORI)
Protocol: Polymerization assays are carried out in vitro using purified HBS exchanged into 1.8 M potassium phosphate buffer at pH 7.4. Using a slightly modified protocol (Antonini and Brunori, 1971), HbS is purified by the CRO VIRUSYS, from blood obtained from homozygous sickle cell patients through the Hemoglobinopathy Center at Children's Hospital Oakland Research Institute (CHORI) with Institutional Review Board approval. Compounds are prepared in 100% DMSO and a desired amount is added to 50 μM of purified HBS at a final DMSO concentration of 0.3%. Final potassium phosphate concentration is adjusted to 1.8 M using a combination of 2.5 M potassium phosphate stock solution and water at pH 7.4. The reaction mixture is incubated for an hour at 37° C. and then transferred into a 24-well plate for deoxygenation in a glove box containing 99.5% nitrogen and 0.5% oxygen. The 24-well plate is not covered and incubated at 4° C. on a plate cooler inside the glove box for one and a half hours. Fifty μL of the reaction mixture is transferred into a 96-well plate and the absorbance at 700 nm is measured every minute for one hour at 37° C. in a plate reader located inside the glove box. A plot of the absorbance against time is fitted using a Boltzman sigmoidal fit and the delay time (from zero to time at half Vmax) is measured. To compare and rank compounds, delay times are expressed as percent delay (% DT), which is defined as the difference in delay times for HBS/compound and HBS alone multiplied by 100 and divided by the delay time for HBS alone.
Compounds listed below have been tested in the polymerization assay. Activity ranges are defined by the number of dagger (†) symbols indicated. † denotes activity ≥40% but ≤80%; †† denotes activity >80% but ≤120%; ††† denotes activity >120% but ≤140%; †††† denotes activity >160%.

HbS/A = target: T2, HbS/A (Homo sapiens, UniProt P68871+P69905, E7V); experiment: Relaxed-to-tense transition assay (R/T assay); format: biochemical; details: compounds tested at 9 μM; 3 μM HbS/A, 30 μM DPG, 1 hr at 37° C., deoxygenation with N2
T2 construct: A mixture of HbS/A was purified from blood; from tissue; host or cells: blood of homozygous sickle cell patients (CHORI)
Protocol: A relaxed-to-tense transition assay (“R/T assay”) was used to determine the ability of substituted benzaldehyde compounds to maintain the high-oxygen affinity relaxed (R) state of hemoglobin under deoxygenated conditions. This ability can be expressed as a “delta R” value (i.e., the change in the time-period of the R state after hemoglobin is treated with a compound, as compared to the period without treatment with the compound). Delta R is the % R to remaining after the compounds treatment compared with no treatment (e.g. if R % without treatment is 8% while with treatment with a target compound is 48% R at 30 μM, then % R is 40% for that compound.
A mixture of HbS/A was purified from blood obtained from homozygous sickle cell patients though the Hemoglobinopathy Center at Children's Hospital Oakland Research Institute (CHORI) with Institutional Review Board approval. HbS/A (at a final concentration of 3 μM) was incubated for 1 hr at 37° C. in presence or absence of compounds in […] potassium phosphate buffer, pH=7.4 and 30 μM 2, 3 diphosphoglycerate (DPG) in 96 well plates in a final volume of 160 μl. Compounds were added at different concentrations (3 μM to 100 μM final concentrations). Plates were covered with a Mylar film. After incubation was completed the Mylar cover was removed and the plates were placed in a Spectrostar Nano plate reader previously heated at 37° C. Five minutes later, N2 (flow rate=20 L/min) was flowed through the spectrophotometer. Spectroscopic measurements (300 nm to 700 nm) were taken every 5 min for 2 hours. Data analysis was performed by using linear regression from the data retrieved for all wavelengths.
Table 4 below lists the delta R values where + indicates a delta R of between 0 and 30, ++ indicates a delta R of between 30 and 50, and +++ indicates a delta R of 50 or greater. Unless noted otherwise, the compounds in Table 2 were tested at 9 μM.

[2] = target: T3, purified Hemoglobin S (HbS) (Homo sapiens, UniProt P68871+P69905, E7V); experiment: Modulation of hemoglobin oxygen affinity: oxygen equilibrium curves (OEC) in purified HbS, HEMOX analyzer; format: biochemical; details: compounds tested at 30 μM; 25 μM purified HbS, 45 min at 37° C., pH 7.4
T3 construct: HbS was purified by a modified procedure; from tissue; host or cells: blood of homozygous sickle cell patients (CHORI)
Protocol: Oxygen equilibrium curves (OEC) in purified Hemoglobin S (HbS) were measured by the change in p50, the partial pressure of oxygen at which the heme binding sites in the HbS sample are 50% saturated with oxygen. HbS was purified by a modified procedure (Antonini and Brunori, 1971; Hemoglobin and Myoglobin in their Reactions with Ligands; North Holland Publishing Company; Amsterdam, London) from blood obtained from homozygous sickle cell patients though the Hemoglobinopathy Center at Children's Hospital Oakland Research Institute (CHORI) with Institutional Review Board approval. Oxygen equilibrium curves were carried out with a HEMOX analyzer, (TCS Scientific, New Hope, Pa.). Five hundred μL of 250 μM purified HbS were diluted into 4.5 mL of HEMOX buffer (30 mM TES, 130 mM NaCl, 5 mM KCl, pH=7.4) resulting in a final hemoglobin concentration of 25 μM. The compounds were added at the final desired concentrations. The mixture was incubated for 45 min at 37° C. and then transferred to the Hemox sample chamber. The samples were saturated with oxygen by flushing with compressed air for 10 minutes. The samples were then flushed with pure nitrogen and the absorbance of deoxy-Hb was recorded as a function of the solution pO2. The oxygen equilibrium data was then fit to the Hill Model to obtain values for p50. The deoxygenation curves for both HbS alone (control) and HbS in the presence of compound were collected with the TCS software. The p50 for purified Hbs was typically 13.8±1.6. Delta p50 values were obtained from the p50 value for control minus the p50 value for HbS treated with compound divided by the p50 value for the control.
The compounds of Table 1 that were where tested in the assay above were all found to have positive delta p50 values. Delta p50% is calculated from [[p50(HbS)-p50(HbS treated with compound)]/p50(HbS)]×100. Table 2 below lists the delta p50% values where + indicates a delta p50% of between 0 and 29 and ++ indicates a delta p50% of 30 or greater. Unless noted otherwise, the compounds in Table 2 were tested at 30 μM.

[3] = test system: Transgenic mice producing human HbS; details: extreme hypoxia (5% oxygen), cited from earlier work

| % delta Delay (purified HBS) | SMILES | delta p50% [1] | delta R (%) (HbS/A) | delta p50 [2] | hypoxia-induced sickled red blood cells ([3]; compared to non-treated mice) | survival times [3] |
| --- | --- | --- | --- | --- | --- | --- |
| †††† (†††† denotes activity >160%) | O=Cc1c(O)cccc1OC[C@H]1CCC[C@@H](C(=O)O)C1 (relative stereo) [Compound 5, cis-3-((2-formyl-3-hydroxyphenoxy)methyl)cyclohexanecarboxylic acid] | ++ (++ indicates a delta p50% of between 30 and 50) | +++ (+++ indicates a delta R of 50 or greater) | ++ (++ indicates a delta p50% of 30 or greater) | – | – |
| †† (†† denotes activity >80% but ≤120%) | COC(=O)[C@H]1CC[C@@H](COc2cccc(O)c2C=O)CC1 [Compound 1, cis-methyl 4-((2-formyl-3-hydroxyphenoxy)methyl)cyclohexanecarboxylate] | + (+ indicates a delta p50% of between 0 and 29) | +++ (+++ indicates a delta R of 50 or greater) | ++ (++ indicates a delta p50% of 30 or greater) | – | – |
| †††† (†††† denotes activity >160%) | O=Cc1c(O)cccc1OC[C@H]1CC[C@@H](C(=O)O)CC1 [Compound 2, cis-4-((2-formyl-3-hydroxyphenoxy)methyl)cyclohexanecarboxylic acid] | ++ (++ indicates a delta p50% of between 30 and 50) | ++ (++ indicates a delta R of between 30 and 50) | ++ (++ indicates a delta p50% of 30 or greater) | – | – |
| – | O=Cc1ccc(CO)o1 [Compound 5HMF, 5-hydroxymethyl-2-furfuraldehyde] | – | – | – | reduced amounts of hypoxia-induced sickled red blood cells | significantly improved survival times |
| †† (†† denotes activity >80% but ≤120%) | O=Cc1c(O)cccc1OC[C@H]1CC[C@H](C(=O)O)CC1 [Compound 6, trans-4-((2-formyl-3-hydroxyphenoxy)methyl)cyclohexanecarboxylic acid] | + (+ indicates a delta p50% of between 0 and 29) | – | ++ (++ indicates a delta p50% of 30 or greater) | – | – |
| †† (†† denotes activity >80% but ≤120%) | COC(=O)C1CCCC(COc2cccc(O)c2C=O)C1 (stereo not shown) [Compound 7, methyl 3-((2-formyl-3-hydroxyphenoxy)methyl)cyclohexanecarboxylate] | + (+ indicates a delta p50% of between 0 and 29) | – | ++ (++ indicates a delta p50% of 30 or greater) | – | – |
| † († denotes activity ≥40% but ≤80%) | COc1cccc(OC[C@H]2CC[C@H](C(=O)OC)CC2)c1C=O [Compound 8, trans-methyl 4-((2-formyl-3-methoxyphenoxy)methyl)cyclohexanecarboxylate] | – | + (+ indicates a delta R of between 0 and 30) | + (+ indicates a delta p50% of between 0 and 29) | – | – |
| – | COC(=O)C1CCCC(COc2cccc(O)c2C=O)C1 (stereo not shown) [Compound 9, methyl 3-((2-formyl-3-hydroxyphenoxy)methyl)cyclohexanecarboxylate] | – | +++ (+++ indicates a delta R of 50 or greater) | + (+ indicates a delta p50% of between 0 and 29) | – | – |
| †† (†† denotes activity >80% but ≤120%) | O=Cc1c(O)cccc1OCC1=C(c2ccccc2)CCCC1 [Compound 10, 2-hydroxy-6-((3,4,5,6-tetrahydro-[1,1′-biphenyl]-2-yl)methoxy)benzaldehyde] | ++ (++ indicates a delta p50% of between 30 and 50) | ++ (++ indicates a delta R of between 30 and 50) | – | – | – |
| † († denotes activity ≥40% but ≤80%) | O=Cc1c(O)cccc1OCC1CCCCC1c1ccccc1 (stereo not shown) [Compound 11, 2-hydroxy-6-((2-phenylcyclohexyl)methoxy)benzaldehyde] | – | ++ (++ indicates a delta R of between 30 and 50) | – | – | – |

| SMILES | % delta Delay (purified HBS) | delta p50% [1] | delta R (%) (HbS/A) | delta p50 [2] | hypoxia-induced sickled red blood cells ([3]; compared to non-treated mice) | survival times [3] |
| --- | --- | --- | --- | --- | --- | --- |
| COC(=O)[C@H]1CC[C@H](COc2cccc(O)c2C=O)CC1 [Compound 4, trans-methyl 4-((2-formyl-3-hydroxyphenoxy)methyl)cyclohexanecarboxylate] | ††† (††† denotes activity >120% but ≤140%) | + (+ indicates a delta p50% of between 0 and 29) | +++ (+++ indicates a delta R of 50 or greater) | ++ (++ indicates a delta p50% of 30 or greater) | – | – |

— patent US10100043B2, “Substituted aldehyde compounds and methods for their use in increasing tissue oxygenation” (Global Blood Therapeutics, Inc., priority 2013, dated 2018)
